Experimental data: ChEMBL document CHEMBL1150389, “Synthesis and evaluation of heteroaromatic 6,7-diaryl-2,3,8,8a-tetrahydroindolizin-5(1H)-ones for cytotoxicity against the HCT-116 colon cancer cell line” (Bioorg Med Chem Lett, 2008)

The compounds below were run on HCT-116 (assay: Cytotoxicity against human HCT116 cells).
Assay type: functional, cell-based

| Structure (SMILES) | IC50 [nM] |
| --- | --- |
| COc1ccc(C2=C(c3ccsc3)C(=O)N3CCCC3C2)cc1 (stereo not drawn) | 1500 |
| CSc1ccc(C2=C(c3ccsc3)C(=O)N3CCCC3C2)cc1 (stereo not drawn) | 600 |
| COc1ccc(C2=C(c3cccnc3)C(=O)N3CCCC3C2)cc1 (stereo not drawn) | 79000 |
| COc1ccc(C2=C(c3ccco3)C(=O)N3CCCC3C2)cc1 (stereo not drawn) | 6000 |
| COc1ccc(C2=C(c3ccccn3)C(=O)N3CCCC3C2)cc1 (stereo not drawn) | 104000 |
| COc1ccc(C2=C(c3ccncc3)C(=O)N3CCCC3C2)cc1 (stereo not drawn) | 19000 |
| CSc1ccc(C2=C(c3ccoc3)C(=O)N3CCCC3C2)cc1 (stereo not drawn) | 1100 |
| COc1ccc(C2=C(c3cccs3)C(=O)N3CCCC3C2)cc1 (stereo not drawn) | 5000 |
| CSc1ccc(C2=C(c3cccs3)C(=O)N3CCCC3C2)cc1 (stereo not drawn) | 270 |
| CSc1ccc(C2=C(c3ccncc3)C(=O)N3CCCC3C2)cc1 (stereo not drawn) | 6000 |
| CSc1ccc(C2=C(c3ccco3)C(=O)N3CCCC3C2)cc1 (stereo not drawn) | 3000 |
| COc1ccc(C2=C(c3ccoc3)C(=O)N3CCCC3C2)cc1 (stereo not drawn) | 3000 |
| CSc1ccc(C2=C(c3ccccc3)C(=O)N3CCCC3C2)cc1 (stereo not drawn) | 1000 |
